Measured values reported in US5100905A, “Method for inhibiting growth of bacteria, fungi or algae by treatment with biocide composition” (Rohm and Haas Company, priority 1991, dated 1992).
Several values for one entry are separate records, joined by “and”; a condition that tells them apart may be missing. Equal values may be shown once. Read-outs that look alike come from different tables or passages of the source.

Key:
[1] = Growth inhibition / minimum inhibitory concentration (MIC) by 2-fold serial dilutions in Trypticase Soy Broth, 3 inoculations; type: cell-based; settings: read-out: End-point activity (MIC) QA (573 alone)
Experimental: (§1) Each single culture was inoculated to TSB agar slants and incubated for 2 days at 30° C. for C. albicans and all bacteria except E. coli and S. aureus, which were at 37° C., and incubated for 10-14 days at 25° C. for fungal cultures. The bacteria and fungi were then washed off the slants with phosphate buffer (0.125 M, pH 7.2) and inoculated into each test tube containing a given concentration and ratio of 573 and 886 to make final cell concentration of about 2×10^7 bacteria and 2×10^6 fungi per ml. […] Seven days after inoculation, 5 microliter of sample from each test tube (containing about 10^5 bacteria and 10^4 fungi from original inoculation) was removed and assessed for viable organisms by 1:50 dilution into TSB medium and checked for regrowth. No viable organisms were detected from the test tubes where MICs were observed. […] Each test tube was reinoculated 2 more times (a total of 3 inoculations) to determine the capacity and the longlasting activity of the combinations.
(§2) As shown, a wide range of concentration and ratios was tested. More importantly all the critical end-point activities for the combinations were covered. […] Thus, the end-point activities are based on the minimum concentrations of a given ratio of combination product that inhibit all three inoculations.

[2] = tested on: mixture of 12 microorganisms; test: Calculation of synergism of 573 and 651 combinations (Kull et al. method); type: cell-based; settings: for SI (synergy index, Qa'/QA + Qb'/.75 QB): <1 synergism, 1 additivity, >1 antagonism
Experimental: as §1
Synergism is determined by the industrially accepted method described by Kull, F. C.; Eisman, P. C.; Sylvestrowicz, H. D. and Mayer, R. L. in Applied Microbiology 9:538-541 (1961) using the ratio determined by [formula] wherein QA=concentration of compound A in parts per million (ppm), acting alone, which produced an end point
Qa=concentration of compound A in ppm, in the mixture, which produced an end point
QB=concentration of compound B in ppm, acting alone, which produced an end point
Qb=concentration of compound B in ppm, in the mixture, which produced an end point
When the sum of Qa/QA plus Qb/QB is greater than one, antagonism is indicated. When the sum is equal to one, additivity is indicated, and when the sum is less than one, synergism is indicated.
as §2
The end-point activity (MIC in ppm) is taken from Table 1.
QA is the end-point activity of 573 alone
QB is the end-point activity of 886 alone
Qa is the end-point activity 573 in the mixture of 573 and 886
Qb is the end-point activity of 886 in the mixture of 573 and 886.
Since 886 is 25% 573 and 75% 651, the total 573 (Qa') in the combinations is Qa+25% Qb, and the total 651 (Qb') in the combinations is 75% Qb. Total concentration of 573 and 651 in the mixture is Qa' and Qb'. The % 573 in the mixture is Qa'/(Qa'+Qb'), and %651 in the mixture is Qb'/(Qa'+Qb'.)
Therefore, the calculation of synergy index (SI) is Qa'/QA+Qb'/.75 QB. The most preferred synergy for 573 and 651 combinations is seen at 2.3%-4.5% of 651. Taking the synergy index of less than 0.5 as most significant, then a range of 2.3% to 8.5% of 651 in the 573/651 combinations is preferred.

skin of guinea pigs = test: Sensitization study, closed-patch test of Buehler; type: in vivo, guinea pig
Experimental: The study was conducted to determine the sensitization potential of the synergistic combination of 3.5% 651 and 96.5% 573. The results were compared to the sensitization potential of 886 (containing 75% 651 and 25% 573) and pure 573.
The closed-patch test of Buehler Current Concepts in Cutaneous Toxicology, (New York: Academic Press 1970), pp. 25-40, is used to investigate the sensitization potential of the materials in the guinea pig. The combination (1.5% total active ingredient) at aqueous concentrations of 1000, 5000, 10000 and 15000 ppm a.i., the 886 (13.9% total active ingredient) at aqueous concentrations of 250, 500 and 750 ppm a.i. and the 573 (solid containing 99.5% total active ingredient) at aqueous concentrations of 5000, 15000 and 30000 ppm a.i. were applied topically to the skin of guinea pigs by means of occluded patches (0.4 ml per patch). All guinea pigs (10 per group at each concentration) received a total of ten 6-hr induction exposures over a 22 day period. In addition, a group of guinea pigs were treated with dry patches only and served as the naive control group. Two weeks after the last induction treatment guinea pigs induced with the combination were challenged with 3 concentrations of the combination in distilled water (1000, 5000 and 15000 ppm a.i.), those induced with 886 were challenged with 3 concentrations of 886 in distilled water (100, 250 and 750 ppm a.i.) and those induced with 573 alone were challenged with 3 concentrations of 573 in distilled water (1000, 5000 and 15000 ppm a.i.). Twenty-four (24) and 48 hr after the challenge doses, the application sites were examined for erythema reactions and graded from 0 to 3 in accordance with a pre-established scoring system. Reactions graded 1 or greater were judged to be skin sensitization reactions.
^a Guinea pigs received ten (6 hr.) induction exposures of the ten
materials (0.4 ml per exposure) over a 22 day period.
^b All guinea pigs received 0.4 ml of challenge doses as specified tw
weeks after the last induction dose.
^c Guinea pigs received sham treatment only.

For `Cn1sccc1=O` [compound 573, 2-methyl-4-isothiazolin-3-one], the MIC ([1]; Expt. 1, all three inoculations) was 500 µg/mL, the MIC ([1]; Expt. 2, all three inoculations) was 125 µg/mL and the “Qa'/QA” value ([2]; Expt. 1) was 1.00. For the same molecule, the “Qb'/QB* (QB* = QB × 75%)” value ([2]; Expt. 1) was 0.00, the “Total 573 Qa' (Qa + 25% Qb) at end-point” value ([2]; Expt. 1) was 500.0 ppm and the “Total ppm Qa' + Qb' at end-point” value ([2]; Expt. 1) was 500.0 ppm. The “SI (synergy index, Qa'/QA + Qb'/.75 QB)” value ([2]; Expt. 1) was 1.00, the “Qa'/QA” value ([2]; Expt. 2) was 1.00 and the “Qb'/QB* (QB* = QB × 75%)” value ([2]; Expt. 2) was 0.00. The “Total 573 Qa' (Qa + 25% Qb) at end-point” value ([2]; Expt. 2) was 125.0 ppm, the “Total ppm Qa' + Qb' at end-point” value ([2]; Expt. 2) was 125.0 ppm and the “SI (synergy index, Qa'/QA + Qb'/.75 QB)” value ([2]; Expt. 2) was 1.00. The “Overall incidence of responses” value (skin of guinea pigs; 5000 and 15000 ppm induction, 1000, 5000 and 15000 ppm challenge) was 7 out of a possible 60 responses, the Erythema (skin of guinea pigs; induction 5000 and 15000 ppm a.i., challenge 1000 ppm a.i.) was “no erythema was observed” and the “Erythema responses of 1 or greater at 24 and/or 48 hours” value (from here on “Erythema responses of 1 or greater”) (skin of guinea pigs; induction 5000 ppm, challenge 1000 ppm (573)) was 0/10. For the same molecule, the “Erythema responses of 1 or greater” value (skin of guinea pigs; induction 5000 ppm, challenge 5000 ppm (573)) was 1/10, the “Erythema responses of 1 or greater” value (skin of guinea pigs; induction 5000 ppm, challenge 15000 ppm (573)) was 2/10 and the “Erythema responses of 1 or greater” value (skin of guinea pigs; induction 15000 ppm, challenge 1000 ppm (573)) was 0/10. For the same molecule, the “Erythema responses of 1 or greater” value (skin of guinea pigs; induction 15000 ppm, challenge 5000 ppm (573)) was 1/10, the “Erythema responses of 1 or greater” value (skin of guinea pigs; induction 15000 ppm, challenge 15000 ppm (573)) was 3/10 and the “Erythema responses of 1 or greater” value (skin of guinea pigs; induction 30000 ppm, challenge 1000 ppm) was 1/9. For the same molecule, the “Erythema responses of 1 or greater” value (skin of guinea pigs; induction 30000 ppm, challenge 5000 ppm) was 2/9, the “Erythema responses of 1 or greater” value (skin of guinea pigs; induction 30000 ppm, challenge 15000 ppm) was 3/9 and the “Erythema responses of 1 or greater” value (skin of guinea pigs; naive control (sham induction), challenge 15000 ppm 573) was “No erythema was observed and 0/10”.
